Some test systems named below: HCT-116; NCI-H522; HCC 2998; SNB-19; SF-268; OVCAR-5; LOX IMVI; SK-MEL-28; NCI-H460; OVCAR-4; HL-60; TK-10; SF-539; OVCAR-3; UO-31; PC-3; DU-145; MDA-MB-231.
What all share (test): NCI tumour cell line growth inhibition, 48 h

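Values below derive from 48-hour exposures of cells grown in 96-well plates, with endpoints linearly interpolated between the two concentrations bracketing the appropriate inhibition level. GI50 = concentration required for 50% inhibition of growth.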 Calls of active or inactive are those of the source. Rule as the data show it: active = GI50 up to about 1.1 µM and inactive = higher.

Consider `O=C1C2=C(SCCS2)C(=O)c2ccccc21`, for which the GI50 with HCT-116 was 1.67 µM (inactive); in the test with NCI-H522 it was 1.76 µM (inactive); with HCC 2998, 1.65 µM (inactive); in the test with SNB-19, 1.54 µM (inactive); in the test on SF-268 it was 1.66 µM (inactive); with OVCAR-5, 1.83 µM (inactive). Further, the GI50 in the test on LOX IMVI is 0.902 µM (active); with SK-MEL-28 it was 1.85 µM (inactive); with NCI-H460 it was 1.83 µM (inactive); in the test on OVCAR-4, 1.65 µM (inactive); in the test with HL-60, 2.31 µM (inactive); with TK-10, 1.84 µM (inactive). In addition, the results for the GI50 in the test on SF-539, in the test with OVCAR-3 and in the test with UO-31 were 1.72 µM (inactive), 1.71 µM (inactive) and 1.93 µM (inactive), respectively.
Consider `Nn1c(CCCCCCCCc2nnc(COc3ccc(Cl)cc3)n2N)nnc1COc1ccc(Cl)cc1`, for which the GI50 was 68.2 µM (inactive) in the test on PC-3; 74.5 µM (inactive) in the test on HCT-116; 81.1 µM (inactive) in the test on NCI-H522; > 100 µM (inactive) with HCC 2998; > 100 µM (inactive) in the test on SNB-19; > 100 µM (inactive) in the test with SF-268. In addition, the GI50 in the test with OVCAR-5, with DU-145, with SK-MEL-28, in the test with MDA-MB-231, in the test on NCI-H460 and in the test on OVCAR-4 was > 100 µM (inactive) each time. Besides, the GI50 in the test on TK-10 is 78 µM (inactive); with UO-31, 25.4 µM (inactive).
Consider `O=C1NC(=O)C2C(=O)NC(=O)C1C2(c1ccccc1)c1cc[nH]c1` (stereo not given), for which the GI50 with NCI-H522, in the test with HCC 2998, in the test with SNB-19, in the test with SF-268, in the test with OVCAR-5 and in the test with LOX IMVI was > 100 µM (inactive) in each case. The GI50 with SK-MEL-28, in the test on NCI-H460, in the test on OVCAR-4, with HL-60, in the test on TK-10 and in the test on SF-539 was > 100 µM (inactive) throughout. The GI50 in the test with OVCAR-3 is > 100 µM (inactive); with UO-31, 74.6 µM (inactive).
Regarding `O=C(CCC(=O)Nc1ccc(Cl)cc1)CC(=O)c1ccc(F)cc1`, the GI50 in the test on HCT-116, in the test on NCI-H522, with HCC 2998, in the test on SNB-19, with SF-268 and with OVCAR-5 was > 100 µM (inactive) each time. In addition, the GI50 in the test with LOX IMVI, in the test on SK-MEL-28, in the test with NCI-H460, with OVCAR-4, in the test with HL-60 and in the test with TK-10 was > 100 µM (inactive) throughout. For the same compound, the GI50 in the test on SF-539, in the test on OVCAR-3 and with UO-31 was > 100 µM (inactive) throughout.
`CCN1CCN(c2ccc(Nc3ccnc4ccc5nn(C)nc5c34)cc2)CC1`: the GI50 in the test on HCT-116 was 5.58 µM (inactive); with NCI-H522, 11.1 µM (inactive); in the test on HCC 2998 it was 13.2 µM (inactive); in the test on SNB-19, 18.7 µM (inactive); in the test with SF-268, 14.9 µM (inactive); with OVCAR-5 it was 15.9 µM (inactive). In addition, the GI50 in the test with LOX IMVI was 7.18 µM (inactive); in the test with SK-MEL-28 it was 16.6 µM (inactive); with NCI-H460, 5.41 µM (inactive); in the test with OVCAR-4, 11.9 µM (inactive); in the test with HL-60, 94.8 µM (inactive); in the test on TK-10 it was 17.5 µM (inactive). Also, the GI50 in the test on SF-539 is 13.8 µM (inactive); with OVCAR-3, 13.5 µM (inactive); in the test on UO-31, 12.8 µM (inactive).
Consider `O=C1CC[C@H]2CNC(=O)C[C@H]2C1`, for which the GI50 in the test with HCT-116, with NCI-H522, with HCC 2998, in the test with SNB-19, in the test with SF-268 and in the test on LOX IMVI was > 100 µM (inactive) each time. Also, the GI50 in the test on SK-MEL-28, in the test with NCI-H460, in the test with OVCAR-4, with HL-60, in the test with TK-10 and in the test on SF-539 was > 100 µM (inactive) throughout. Besides, the GI50 with OVCAR-3 and with UO-31 was > 100 µM (inactive) in each case.
On to `O=C(Cc1ccccc1[N+](=O)[O-])C(CO)c1ccccc1[N+](=O)[O-]` (stereo not given), for which the GI50 in the test on HCT-116 was 70.5 µM (inactive); in the test on NCI-H522, 16.8 µM (inactive); with HCC 2998, > 100 µM (inactive); in the test on SNB-19, > 100 µM (inactive); in the test on SF-268, 35.2 µM (inactive); in the test with OVCAR-5, > 100 µM (inactive). The GI50 in the test on LOX IMVI was 91.8 µM (inactive); in the test with SK-MEL-28, > 100 µM (inactive); in the test with NCI-H460 it was 96.8 µM (inactive); in the test with OVCAR-4, 96.4 µM (inactive); in the test on HL-60, 67.1 µM (inactive); with TK-10 it was > 100 µM (inactive). Besides, the GI50 in the test with SF-539 is > 100 µM (inactive); with OVCAR-3 it was 66.1 µM (inactive); in the test on UO-31, 19.9 µM (inactive).
Consider `COC1OC(OC)C2C(c3c(C)cc(C)cc3C)=NOC12` (stereo not given), for which the GI50 in the test on HCT-116, in the test with NCI-H522, with HCC 2998, in the test with SNB-19, with SF-268 and with OVCAR-5 was > 100 µM (inactive) in each case. In addition, the GI50 in the test on LOX IMVI, in the test with SK-MEL-28, in the test with NCI-H460, in the test on OVCAR-4, in the test with HL-60 and in the test with TK-10 was > 100 µM (inactive) each time. In addition, the GI50 in the test on OVCAR-3 and with UO-31 was > 100 µM (inactive) in each case.
Consider `CCC/C(=N/NC(=O)C(N)=O)C(CC)C(=O)CCC(=O)N(Cc1ccccc1)Cc1ccccc1` (stereo not given), for which the GI50 in the test on HCT-116, with NCI-H522, in the test on HCC 2998, with SNB-19, with SF-268 and with OVCAR-5 was > 100 µM (inactive) throughout. In addition, the GI50 in the test with LOX IMVI, in the test on SK-MEL-28, in the test on NCI-H460, in the test with HL-60, in the test on TK-10 and in the test on SF-539 was > 100 µM (inactive) each time. Further, the GI50 in the test on OVCAR-3 and in the test on UO-31 was > 100 µM (inactive) each time.
In the case of `COc1ccc2c3c([nH]c2c1[N+](=O)[O-])C(C)=NCC3`, the GI50 with HCT-116 was 30.2 µM (inactive); in the test on NCI-H522, > 100 µM (inactive); with HCC 2998 it was > 100 µM (inactive); with SNB-19, > 100 µM (inactive); with SF-268, 20 µM (inactive); in the test with OVCAR-5 it was 61 µM (inactive). In addition, the GI50 with LOX IMVI was 50.9 µM (inactive); in the test on SK-MEL-28 it was > 100 µM (inactive); with NCI-H460, 34.9 µM (inactive); with OVCAR-4 it was > 100 µM (inactive); in the test with HL-60, > 100 µM (inactive); in the test on TK-10 it was > 100 µM (inactive). The GI50 in the test with SF-539 is 65.6 µM (inactive); in the test with OVCAR-3, > 100 µM (inactive); in the test on UO-31, 98.4 µM (inactive).

The values above are taken from ChEMBL document CHEMBL1201862, “PubChem BioAssay data set” (2004).
